What was measured:
L1210 = assay: Growth inhibition against mouse leukemia L1210 cell line; type: functional, cell-based
HCT-8 = assay: Growth inhibition against human colon carcinoma HCT-8 cell line; type: functional, cell-based

| IC50 (L1210) | IC50 (HCT-8) | Structure (SMILES) |
| --- | --- | --- |
| 896 nM | 317 nM | CCN(CC)CCN1Nc2c3cc(N(C)C)ccc3nc3c([N+](=O)[O-])ccc1c23 |
|  | 55 nM | CCOc1ccc2c(c1)-c1nn(CCCN(C)C)c3ccc([N+](=O)[O-])c(c13)N2 |
| 877 nM | 788 nM | CCN(CC)CCN1c2ccccc2-c2nn(CCN(CC)CC)c3ccc([N+](=O)[O-])c1c23 |
| 618 nM | 901 nM | CCN(CC)CCn1nc2c3c(c([N+](=O)[O-])ccc31)N(C)c1ccccc1-2 |
| 785 nM | 297 nM | CCN(CC)CCn1nc2c3c(c(/N=C/N(C)C)ccc31)N(C)c1ccccc1-2 |
| 646 nM | 339 nM | CCCCOc1ccc2c(c1)-c1nn(CCNCCO)c3ccc([N+](=O)[O-])c(c13)N2 |
| 469 nM | 123 nM | CCN(CC)CCN1Nc2c3cc(OC)ccc3nc3c([N+](=O)[O-])ccc1c23 |
| 592 nM | 255 nM | Cc1ccc2c(c1)-c1nn(CCNCCO)c3ccc([N+](=O)[O-])c(c13)N2 |
| 2 nM |  | CN(C)CCCN1Nc2c3cc(O)ccc3nc3c([N+](=O)[O-])ccc1c23 |
| > 10000 nM |  | O=[N+]([O-])c1ccc2c3c(c4ccccc4nc13)NN2CCO |
| 6 nM | 6 nM | CCN(CC)CCN1Nc2c3cc(O[Si](C)(C)C(C)(C)C)ccc3nc3c([N+](=O)[O-])ccc1c23 |
| 1 nM | 11 nM | CC(=O)Oc1ccc2nc3c([N+](=O)[O-])ccc4c3c(c2c1)NN4CCCN(C)C |
| 8 nM | 27 nM | CN(C)CCCN1Nc2c3cc(OC(=O)C(C)(C)C)ccc3nc3c([N+](=O)[O-])ccc1c23 |
| > 10000 nM |  | CN1Nc2c3ccccc3nc3c([N+](=O)[O-])ccc1c23 |
| 399 nM | 66 nM | CCN(CC)CCN1Nc2c3cc(OC)ccc3nc3c([N+](=O)[O-])cc([N+](=O)[O-])c1c23 |
| 10 nM | 10 nM | CCN(CC)CCN1Nc2c3cc(OC(=O)C(C)(C)C)ccc3nc3c([N+](=O)[O-])ccc1c23 |
|  | 114 nM | CCOc1ccc2c(c1)-c1nn(CCN(CC)CC)c3ccc([N+](=O)[O-])c(c13)N2 |
| 192 nM | 185 nM | CCN(CC)CCN1Nc2c3ccccc3nc3c([N+](=O)[O-])ccc1c23 |
| 2680 nM | 1140 nM | CCN(CC)CCN1Nc2c3cc(OCc4ccccc4)ccc3nc3c([N+](=O)[O-])ccc1c23 |
| 424 nM | 136 nM | COc1ccc2c(c1)-c1nn(CCCN(C)C)c3ccc([N+](=O)[O-])c(c13)N2 [PYRAZOLOACRIDINE] |
| > 10000 nM | > 10000 nM | COc1ccc2c(c1)-c1nn(CCO)c3ccc([N+](=O)[O-])c(c13)N2 |

| IC50 (L1210) | IC50 (HCT-8) | Structure (SMILES) |
| --- | --- | --- |
| 275 nM | 25 nM | CCOc1ccc2c(c1)-c1nn(CCN(C)C)c3ccc([N+](=O)[O-])c(c13)N2 |
| 208 nM | 124 nM | CCNCCN1Nc2c3cc(OC)ccc3nc3c([N+](=O)[O-])ccc1c23 |
| 325 nM | 82 nM | CCOc1ccc2c(c1)-c1nn(CCNCCO)c3ccc([N+](=O)[O-])c(c13)N2 |
| 396 nM | 105 nM | COc1ccc2c(c1)-c1nn(CCN(C)C)c3ccc([N+](=O)[O-])c(c13)N2 |
| 469 nM | 31 nM | CCCOc1ccc2c(c1)-c1nn(CCN(CC)CC)c3ccc([N+](=O)[O-])c(c13)N2 |
| 863 nM | 786 nM | CCN(CC)CCN1Nc2c3cc(C)ccc3nc3c([N+](=O)[O-])ccc1c23 |
| 601 nM | 164 nM | CN(C)CCN1Nc2c3cc(N(C)C)ccc3nc3c([N+](=O)[O-])ccc1c23 |
| 1330 nM | 764 nM | CCN(CC)CCCN1Nc2c3cc(OC)ccc3nc3c([N+](=O)[O-])ccc1c23 |
| 2710 nM | 1220 nM | C=CCN1c2ccccc2-c2nn(CCNCCO)c3ccc([N+](=O)[O-])c1c23 |
| 1180 nM | 73 nM | CCCCOc1ccc2c(c1)-c1nn(CCN(CC)CC)c3ccc([N+](=O)[O-])c(c13)N2 |
| 4 nM | 5 nM | CCN(CC)CCN1Nc2c3cc(OC(C)=O)ccc3nc3c([N+](=O)[O-])ccc1c23 |
| 605 nM | 308 nM | CCN(CC)CCn1nc2c3c(c([N+](=O)[O-])ccc31)N(C)c1ccc(OC)cc1-2 |
| 510 nM | 518 nM | CN1c2ccccc2-c2nn(CCNCCO)c3ccc([N+](=O)[O-])c1c23 |
| > 10000 nM |  | C=Cn1nc2c3c(c([N+](=O)[O-])ccc31)N(C)c1ccccc1-2 |
| > 10000 nM | 1560 nM | CCN(CC)CCn1nc2c3c(c(N)ccc31)N(C)c1ccccc1-2 |
| 1830 nM | 774 nM | CCN(CC)CCN1Nc2c3cc(S(C)(=O)=O)ccc3nc3c([N+](=O)[O-])ccc1c23 |
| 645 nM | 506 nM | CCN(CC)CCN1Nc2c3cccc(OC)c3nc3c([N+](=O)[O-])ccc1c23 |
| 513 nM | 352 nM | CSc1ccc2c(c1)-c1nn(CCCN(C)C)c3ccc([N+](=O)[O-])c(c13)N2 |
| 218 nM | 152 nM | O=[N+]([O-])c1ccc2c3c(c4ccccc4nc13)NN2CCNCCO |
| > 10000 nM |  | CCN(CC)CCN1Nc2c3ccccc3nc3c(NC(C)=O)ccc1c23 |
| 450 nM | 193 nM | COc1ccc2c(c1)-c1nn(CCNCCO)c3ccc([N+](=O)[O-])c(c13)N2 |

| Structure (SMILES) | IC50 (L1210) | IC50 (HCT-8) |
| --- | --- | --- |
| COc1ccc2c(c1)-c1nn(CCN(C)C)c3c([N+](=O)[O-])cc([N+](=O)[O-])c(c13)N2 | 49 nM | 15 nM |

Source: ChEMBL document CHEMBL1126892, “Comparative molecular field analysis of in vitro growth inhibition of L1210 and HCT-8 cells by some pyrazoloacridines” (J Med Chem, 1993)
